Results on two molecules are retold here after patent US8551721B2, “Bioluminescent detection of cyanohydroxy benzothiazole compounds” (Promega Corporation, priority 2008, dated 2013).

Format in all cases: biochemical
For one test, the target named is T1, UGT 1A9 (Homo sapiens, UniProt O60656).
T1 construct: purchased BD Gentest; host or cells: insect cells (microsomes)
T1 sequence (O60656 26-530): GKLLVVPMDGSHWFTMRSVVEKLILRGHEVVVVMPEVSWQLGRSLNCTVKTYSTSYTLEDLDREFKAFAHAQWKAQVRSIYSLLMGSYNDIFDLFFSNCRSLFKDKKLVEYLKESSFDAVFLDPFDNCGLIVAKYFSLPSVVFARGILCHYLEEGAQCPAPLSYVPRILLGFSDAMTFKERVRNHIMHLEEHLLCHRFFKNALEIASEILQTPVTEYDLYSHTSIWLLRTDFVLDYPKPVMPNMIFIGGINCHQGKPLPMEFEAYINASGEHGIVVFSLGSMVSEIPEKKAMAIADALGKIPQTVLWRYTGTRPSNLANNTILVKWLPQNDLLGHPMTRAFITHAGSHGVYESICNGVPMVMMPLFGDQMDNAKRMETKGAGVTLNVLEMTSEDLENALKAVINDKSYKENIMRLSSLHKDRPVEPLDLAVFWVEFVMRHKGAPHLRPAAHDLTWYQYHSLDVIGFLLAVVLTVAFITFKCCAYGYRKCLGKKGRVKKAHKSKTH
As to the kind of experiment: UGT activity: utilization of substrate by recombinant UGT 1A9 Supersomes. The conditions noted are these: 2 hour incubation at 37° C., plus vs minus UDPGA, background corrected. The protocol:
(§1) The invention includes a method of determining activity of the uridine 5′-diphospho-glucuronosyltransferase (UDP-glucuronosyltransferase, or UGT) family enzymes in vitro. Briefly, UGT enzymes from overexpressed insect microsomes (Supersomes™, BD Gentest™) or animal tissue microsomes (Xenotech, BD Gentest™) were incubated with a cyanobenzothiazole substrate of the invention and the cofactor UDP-glucuronic acid (UDPGA) at 37° C. in buffer at physiological pH containing MgCl2 and alamethicin (typically, 50 mM TES, pH 7.5, 8 mM MgCl2, 4 mM UDPGA (Sigma) and 25 μg/mL alamethicin (Sigma)). Following the UGT enzyme reaction, an equal volume of P450-Glo Luciferin Detection Reagent (Promega) containing 15-30 mM D-cysteine-HCl.H2O (Sigma) was added and the plate was mixed and incubated at room temperature, typically for 20-30 minutes. […]
(§2) During this incubation, the cysteine reacts with the cyanobenzathiozole substrate to yield a D-luciferin derivative. […] Therefore, activity of the UGT enzyme can be measured by analyzing the difference (lower or no output) in relative light units (RLU) of a sample in which glucuronidation occurs compared to a sample that was run under the same conditions with no added UDPGA cofactor. […]
(§3) Reactions were assembled in a white 96-well plate. […] After the incubation was completed, the plate was read on a Veritas™ luminometer (Turner BioSystems, Inc.; Sunnyvale, Calif.). […]

The target of another test is T2, UGT 1A3 (Homo sapiens, UniProt P35503).
T2 construct: purchased BD Gentest; host or cells: insect cells (microsomes)
T2 sequence (P35503 29-534): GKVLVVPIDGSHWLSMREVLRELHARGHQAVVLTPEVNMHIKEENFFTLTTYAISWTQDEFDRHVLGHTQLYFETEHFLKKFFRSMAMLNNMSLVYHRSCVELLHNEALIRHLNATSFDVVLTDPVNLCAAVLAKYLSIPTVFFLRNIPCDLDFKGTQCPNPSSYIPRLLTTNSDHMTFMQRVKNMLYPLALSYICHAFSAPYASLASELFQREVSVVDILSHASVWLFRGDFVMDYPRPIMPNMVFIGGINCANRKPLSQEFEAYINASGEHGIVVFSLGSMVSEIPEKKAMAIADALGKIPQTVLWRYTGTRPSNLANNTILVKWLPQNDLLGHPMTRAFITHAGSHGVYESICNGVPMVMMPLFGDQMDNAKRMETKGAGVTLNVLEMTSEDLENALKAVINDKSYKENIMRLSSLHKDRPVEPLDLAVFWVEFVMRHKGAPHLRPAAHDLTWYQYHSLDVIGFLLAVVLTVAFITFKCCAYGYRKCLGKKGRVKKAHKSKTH
The test is described as follows: UGT activity: utilization of substrate by recombinant UGT 1A3 Supersomes. The settings on record: 2 hour incubation at 37° C., plus vs minus UDPGA. The protocol:
as §1, §2, §3

A further test concerns the target T3, UGT 2B17 (Homo sapiens, UniProt O75795).
T3 construct: purchased BD Gentest; host or cells: insect cells (microsomes)
T3 sequence (O75795 24-530): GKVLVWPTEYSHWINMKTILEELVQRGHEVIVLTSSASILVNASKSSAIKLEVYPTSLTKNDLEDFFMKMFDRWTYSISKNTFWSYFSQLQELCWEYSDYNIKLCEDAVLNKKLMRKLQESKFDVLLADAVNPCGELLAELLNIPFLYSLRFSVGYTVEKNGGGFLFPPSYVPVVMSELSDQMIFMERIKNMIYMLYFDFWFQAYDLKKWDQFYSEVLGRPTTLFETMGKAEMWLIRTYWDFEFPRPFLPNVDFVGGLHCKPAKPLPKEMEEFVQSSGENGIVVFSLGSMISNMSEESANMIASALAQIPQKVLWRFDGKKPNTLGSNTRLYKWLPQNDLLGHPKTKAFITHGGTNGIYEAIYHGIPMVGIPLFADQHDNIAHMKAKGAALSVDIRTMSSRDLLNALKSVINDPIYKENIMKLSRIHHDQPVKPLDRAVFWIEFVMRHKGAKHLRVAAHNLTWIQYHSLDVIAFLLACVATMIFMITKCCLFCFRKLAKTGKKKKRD
The test is described as follows: UGT activity: utilization of substrate by recombinant UGT 2B17 Supersomes. The settings on record: 2 hour incubation at 37° C., plus vs minus UDPGA. The protocol:
as §1, §2, §3

Turning to `Cc1cc(O)cc2sc(C3=NC(C(=O)O)CS3)nc12` (stereo not drawn) [compound 3478], the “% utilization by UGT 1A9” value at UGT 1A9 was not above 15%. On UGT 1A3, the “utilization by UGT 1A3 (in words)” value is “only UGT 1A6 was able to utilize compound 3478 to any appreciable extent”. For the same molecule, the “utilization by UGT 2B17 (in words)” value on UGT 2B17 is listed as “only UGT 1A6 was able to utilize compound 3478 to any appreciable extent”.

Consider `Cc1cc(O)cc2sc(C#N)nc12` [compound 3138], for which the “% utilization by UGT 1A9” value at UGT 1A9 is on record as “over 50%”. Further, the “utilization by UGT 1A3 (in words)” value at UGT 1A3 is recorded as “detectable levels of utilization above background”. Further, the “utilization by UGT 2B17 (in words)” value at UGT 2B17 is given as “detectable levels of utilization above background”.
